Experimental data: ChEMBL document CHEMBL3046526, “-Glucosidase inhibitory and antioxidant properties and antidiabetic activity of Hypericum ascyron L” (Med Chem Res, 2011)
pIC50: −log10 of the molar value. In brackets after ≈: the same amount, converted by molar mass.

Columns and labels:
[1] = tested on: Radical scavenging activity; assay: Antioxidant activity assessed as inhibition of DPPH radical production at 54.05 ug/ml after 30 min by microplate assay; assay type: functional
[2] = target: Lysosomal alpha-glucosidase (Rattus norvegicus) (UniProt Q6P7A9); assay: Inhibition ofRattus norvegicus alpha-glucosidase isolated from intestine using PNPG as substrate at 0.03 uM incubated for 15 min prior to substrate addition measured after 15 min by spectrophotometric analysis
Chain of Lysosomal alpha-glucosidase (Rattus norvegicus) (Q6P7A9 whole entry): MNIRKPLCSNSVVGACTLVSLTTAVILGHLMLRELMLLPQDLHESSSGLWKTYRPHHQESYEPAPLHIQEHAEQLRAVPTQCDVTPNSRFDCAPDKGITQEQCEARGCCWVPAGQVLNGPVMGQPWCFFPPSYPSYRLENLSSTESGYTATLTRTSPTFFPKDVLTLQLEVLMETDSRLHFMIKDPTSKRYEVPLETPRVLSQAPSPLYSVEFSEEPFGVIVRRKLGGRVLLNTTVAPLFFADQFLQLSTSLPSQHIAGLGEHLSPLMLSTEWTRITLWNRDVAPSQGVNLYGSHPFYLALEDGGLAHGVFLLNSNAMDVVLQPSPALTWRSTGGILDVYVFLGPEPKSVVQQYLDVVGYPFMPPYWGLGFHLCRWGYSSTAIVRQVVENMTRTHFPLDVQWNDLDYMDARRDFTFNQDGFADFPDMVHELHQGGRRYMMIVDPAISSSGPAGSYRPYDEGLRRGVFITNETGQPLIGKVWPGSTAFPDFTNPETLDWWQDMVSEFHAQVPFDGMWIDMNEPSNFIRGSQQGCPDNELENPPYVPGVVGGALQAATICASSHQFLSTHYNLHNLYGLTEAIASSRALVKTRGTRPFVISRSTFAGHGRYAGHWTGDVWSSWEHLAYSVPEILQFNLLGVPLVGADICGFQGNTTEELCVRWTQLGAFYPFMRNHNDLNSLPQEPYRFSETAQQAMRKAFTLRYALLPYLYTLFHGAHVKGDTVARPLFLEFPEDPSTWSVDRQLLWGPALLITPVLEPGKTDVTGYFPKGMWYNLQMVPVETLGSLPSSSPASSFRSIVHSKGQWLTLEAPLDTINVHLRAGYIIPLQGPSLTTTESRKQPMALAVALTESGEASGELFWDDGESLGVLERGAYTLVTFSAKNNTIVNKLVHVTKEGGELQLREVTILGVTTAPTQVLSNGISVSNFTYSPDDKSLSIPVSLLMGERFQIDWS

Homo sapiens [3] = organism: Homo sapiens; assay: Inhibition of alpha-glucosidase (unknown origin) using PNPG as substrate at 0.03 uM incubated for 15 min prior to substrate addition measured after 15 min by spectrophotometric analysis
[4] = target: Lysosomal alpha-glucosidase (Rattus norvegicus) (UniProt Q6P7A9); assay: Inhibition ofRattus norvegicus alpha-glucosidase isolated from intestine using PNPG as substrate at 0.02 uM incubated for 15 min prior to substrate addition measured after 15 min by spectrophotometric analysis
[5] = Inhibition of alpha-glucosidase (unknown origin) using PNPG as substrate at 0.02 uM incubated for 15 min prior to substrate addition measured after 15 min by spectrophotometric analysis; conditions: Homo sapiens
[6] = Inhibition of alpha-glucosidase (unknown origin) using PNPG as substrate incubated for 15 min prior to substrate addition measured after 15 min by spectrophotometric analysis; parameters: species or system Homo sapiens
Homo sapiens [7] = organism: Homo sapiens; assay: Inhibition of alpha-glucosidase (unknown origin) using PNPG as substrate at 0.83 uM incubated for 15 min prior to substrate addition measured after 15 min by spectrophotometric analysis
[8] = target: Lysosomal alpha-glucosidase (Rattus norvegicus) (UniProt Q6P7A9); conditions: 0.83 uM
Description: Inhibition ofRattus norvegicus alpha-glucosidase isolated from intestine using PNPG as substrate at 0.83 uM incubated for 15 min prior to substrate addition measured after 15 min by spectrophotometric analysis

[9] = tested on: Radical scavenging activity; assay: Antioxidant activity assessed as inhibition of DPPH radical production after 30 min by microplate assay; assay type: functional
[10] = tested on: Radical scavenging activity; assay: Antioxidant activity assessed as inhibition of DPPH radical production at 108.11 ug/ml after 30 min by microplate assay; assay type: functional
[11] = tested on: Radical scavenging activity; assay: Antioxidant activity assessed as inhibition of DPPH radical production at 10.81 ug/ml after 30 min by microplate assay; assay type: functional

Row | Compound | inhibition [1] [%] | inhibition [4] [%] | inhibition [5] [%] | pIC50 [6] | IC50 [9] [µg/mL] | further results
1 | O=c1c(O)c(-c2ccc(O)c(O)c2)oc2c(O)ccc(O)c12 | 2.63 |  |  |  |  | inhibition [2]: < 50%; inhibition (Homo sapiens [3]): 14.3%
2 | O=c1c(O[C@@H]2O[C@H](CO)[C@@H](O)[C@H](O)[C@H]2O)c(-c2ccc(O)cc2)oc2cc(O)cc(O)c12 | 1.96 | < 50 | 18 |  |  | 
3 | C[C@H]1O[C@H](O[C@H]2[C@H](O)[C@@H](O)[C@@H](O[C@H]3[C@H](O)[C@@H](O)C(O)O[C@@H]3CO)O[C@@H]2CO)[C@H](O)[C@@H](O)[C@@H]1N[C@H]1C=C(CO)[C@@H](O)[C@H](O)[C@H]1O (some centres undefined) [ACARBOSE] |  |  |  | 3.05 |  | inhibition (Homo sapiens [7]): 68.4%; inhibition [8]: 55.2%
4 | Cc1cc(C(C)(C)C)c(O)c(C(C)(C)C)c1 [BUTYLATED HYDROXYTOLUENE] |  |  |  |  | 40.8 (≈ 185 µM) | inhibition [10]: 80.5%
5 | O=c1c(O[C@@H]2O[C@H](CO)[C@H](O)[C@H](O)[C@H]2O)c(-c2ccc(O)c(O)c2)oc2cc(O)cc(O)c12 [HYPEROSIDE] | 86.5 | < 50 | 14.2 |  | 24.02 (≈ 51.7 µM) | 
6 | O=c1c(O[C@@H]2O[C@H](CO)[C@@H](O)[C@H](O)[C@H]2O)c(-c2ccc(O)c(O)c2)oc2cc(O)cc(O)c12 [ISOQUERCETIN] | 86.1 | < 50 | 14.4 |  | 24.02 (≈ 51.7 µM) | 
7 | O=c1c(O)c(-c2ccc(O)cc2)oc2cc(O)cc(O)c12 [KAEMPFEROL] | 90.1 |  |  | 4.21 | 14.78 (≈ 51.6 µM) | inhibition [2]: 99.3%; inhibition (Homo sapiens [3]): 51.5%
8 | CCCOC(=O)c1cc(O)c(O)c(O)c1 [PROPYL GALLATE] |  |  |  |  | 3.96 (≈ 18.7 µM) | inhibition [11]: 89%
9 | C[C@H]1[C@H](C)CC[C@]2(C(=O)O)CC[C@]3(C)C(=CC[C@@H]4[C@@]5(C)CC[C@H](O)C(C)(C)[C@@H]5CC[C@]43C)[C@H]12 [URSOLIC ACID] |  | < 50 | 99.7 | 5.75 |  | 
